Measurements taken from ChEMBL document CHEMBL3217505, “Synthesis and biological evaluation of a new class of anti-brucella compounds targeting histidinol dehydrogenase: -O-arylketones and -S-arylketones derived from histidine” (Medchemcomm, 2011).

biological target: T1, Histidinol dehydrogenase (Brucella suis biovar 1 (strain 1330), UniProt Q8G2R2); test: Inhibition of Brucella suis 1330 His6-tagged HDH expressed in Escherichia coli BL21 (DE3) using L-histidinol as substrate assessed as NADH formation preincubated for 5 mins followed by substrate addition
T1 sequence (Q8G2R2 whole entry): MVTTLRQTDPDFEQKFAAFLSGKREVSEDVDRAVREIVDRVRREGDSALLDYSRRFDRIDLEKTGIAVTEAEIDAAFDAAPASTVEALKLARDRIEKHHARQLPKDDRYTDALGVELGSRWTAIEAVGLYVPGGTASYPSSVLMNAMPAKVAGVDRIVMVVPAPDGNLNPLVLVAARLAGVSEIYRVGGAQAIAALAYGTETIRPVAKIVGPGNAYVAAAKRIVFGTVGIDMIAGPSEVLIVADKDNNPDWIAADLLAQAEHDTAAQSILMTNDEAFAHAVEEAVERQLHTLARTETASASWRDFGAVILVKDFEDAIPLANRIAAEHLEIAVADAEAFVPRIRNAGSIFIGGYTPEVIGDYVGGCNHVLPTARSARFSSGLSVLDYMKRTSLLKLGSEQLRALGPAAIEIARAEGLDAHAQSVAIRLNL

SMILES	IC50 [nM]
N[C@@H](Cc1c[nH]cn1)C(=O)COc1ccc(F)cc1	4700
N[C@@H](Cc1c[nH]cn1)C(=O)CS	2100
N[C@@H](Cc1c[nH]cn1)C(=O)CSc1ccc(Br)cc1	2800
N[C@@H](Cc1c[nH]cn1)C(=O)CSc1c(F)c(F)c(F)c(F)c1F	19200
N[C@@H](Cc1c[nH]cn1)C(=O)CO	24.3
Cc1ccc(OCC(=O)[C@@H](N)Cc2c[nH]cn2)cc1	208
N[C@@H](Cc1c[nH]cn1)C(=O)COc1ccc(Br)cc1	1600
N[C@@H](Cc1c[nH]cn1)C(=O)COc1c(F)c(F)c(F)c(F)c1F	2780
Cc1ccc(SCC(=O)[C@@H](N)Cc2c[nH]cn2)cc1	39500
N[C@@H](Cc1c[nH]cn1)C(=O)CSc1ccc(F)cc1	3100
N[C@@H](Cc1c[nH]cn1)C(=O)COc1ccc2ccccc2c1	108
N[C@@H](Cc1c[nH]cn1)C(=O)CSc1ccccc1	7100
N[C@@H](Cc1c[nH]cn1)C(=O)COc1ccccc1	3650
N[C@@H](Cc1c[nH]cn1)C(=O)CSc1ccc2ccccc2c1	3300
